# Test: Human HepG2 cell viability assay in 384 well format
# Format: toxicity, cell-based
# Set-up: dose 125 nL, time 70.5 hour; concentration not given beside the values
# Details: HepG2 cells, read-out: Inhibition
row,SMILES,cytotoxicity at 70.5 h [%]
1,COCCN1Cc2ccccc2C2(CCN(S(C)(=O)=O)CC2)C1,-5.3
2,c1cnnc(-c2noc(COCC3CCCO3)n2)c1 (stereo not drawn),-3.34
3,NC(=O)CN1CCCC(c2nccnc2Oc2cccc(F)c2)C1 (stereo not drawn),-9.46
4,O=C(NCCNC(=O)c1scnc1Cl)c1ccoc1,5.67
5,CSC(C)C(=O)NS(=O)(=O)CCc1ccccc1 (stereo not drawn),-2.58
6,COCCN(Cc1ccoc1)S(=O)(=O)c1ccc(OC)c(Cl)c1,-20.8
7,CC(C)Nc1nc(-c2ccccc2)nc2c1CCN(C(=O)CC#N)CC2,-3.92
8,CN1CC(=O)N(c2cccc(F)c2)CC12CCN(S(=O)(=O)C1CC1)C2 (stereo not drawn),-2.84
9,CS(=O)(=O)c1ccc(O[C@H]2COCCN(C(=O)c3ccno3)C2)cc1,-2.76
10,O=C(N1CCOCC1)[C@@]12CCO[C@@H]1CCN(Cc1cccc(F)c1)C2,-8.34
11,O=C(CCn1ccnc1)N1CCCC(n2cncn2)C1 (stereo not drawn),10.1
12,CCn1ccnc1CN1CCN(Cc2ccc(C#N)cc2)CC1,28.9
13,CC(C)CN1CCS(=O)(=O)[C@@H]2CCN(S(=O)(=O)CC(C)C)CC[C@@H]21,-3.69
14,CCN(CC)C(=O)N1CCN(CCc2ccncc2)CC1,-7.09
15,O=C(CN1CCCC1Cn1cncn1)Nc1nncs1 (stereo not drawn),14.3
16,Cc1nc(N2CCC(C(O)c3nccn3C)CC2)c2nc(C)oc2n1 (stereo not drawn),-5.83
17,CC(C)CNC(=O)c1c(-n2cnnn2)sc2c1CCCC2,-4.4
18,Cc1cc(C)c(CNC(=O)NCc2ccc(F)cc2)c(=O)[nH]1,-3.16
19,Cc1ccc(CN2Cc3ccccc3O[C@]3(CC[C@H](CO)CC3)C2)o1,52
20,COc1ccc(C2SCC(=O)Nc3n[nH]cc32)c(OC)c1OC (stereo not drawn),5.69
21,O=C(NCCc1c[nH]cn1)c1ccc2c(c1)C(=O)N(C1CCCC1)C2=O,-1.68
22,CN(C)CCO[C@@H]1CC[C@H]2[C@H]1OCCN2C(=O)c1ccnnc1,22.4
23,CCN1CC2(CCN(CCOc3ccc(F)cc3)CC2)CC1=O,12.8

row,SMILES,cytotoxicity at 70.5 h [%]
1,O=C(c1ccc(NCc2ccco2)nc1)N1CCc2ccccc21,-3.94
2,CCc1nnc(Nc2cccc(C3CCN(C(=O)CN(C)C)CC3)n2)s1,9.15
3,CC(C)N1CCC(NC(=O)NCc2ccccc2)CC1,-0.0959
4,Cc1nn(C)c2ncnc(N(C)CC3CCN(CC(C)C)C3)c12 (stereo not drawn),-2.77
5,CN(C)C[C@@H]1CN(C(=O)Cc2cccc(O)c2)C[C@@H]1CO,-7.03
6,CNC(=O)c1cn[nH]c1C1CCCN1c1nc(C)cc(C)n1 (stereo not drawn),-3.88
7,CN(C)C(=O)CCC[S+]([O-])Cc1ccc(Cl)c(Cl)c1 (stereo not drawn),-3.04
8,CC(C)(C)c1ccc(C2(C(=O)NCCS(N)(=O)=O)CC2)cc1,-9.31
9,Cc1nc(C)n(CC2CCCN2CC(=O)Nc2c(C)n[nH]c2C)n1 (stereo not drawn),-1.18
10,O=C(Nc1ccccc1)C1=NOC2(CCCN(C(=O)C3CCCC3)C2)C1 (stereo not drawn),-1.79
11,COCCN(Cc1cnn(C)c1)C(=O)C1CCN(C2CCCCC2)CC1,-10.8
12,COC(=O)CCNC(=O)c1c[nH]cc1-c1cccc(OC)c1,3.36
13,Cc1ccccc1C(=O)N1C[C@@H]2COC[C@]2(COCc2cccnc2)C1,2.96
14,Cn1nc(C(=O)NC2CCCCC2)cc1NC(=O)C1CC1,-5.38
15,COc1ccc(CN(Cc2cn(C)nc2C)CC2CCCO2)c(OC)c1 (stereo not drawn),-2.41
16,CC(=O)c1cc2ncc(C(=O)NC3CCCC3)cc2[nH]1,-3.81
17,Cc1nc(CN2CCCC(CCc3ccccc3C(F)(F)F)C2)no1 (stereo not drawn),-8.94
18,C[C@H]1C[C@H]2CN(Cc3ccccn3)CC[C@@H]2O1,-3.43
19,CC(NC(=O)C1CC1)C(=O)N(C)Cc1ccsc1 (stereo not drawn),-5.83
20,Cc1ccc(C(=O)N2Cc3c(CN4CCCCC4)nn(C)c3C2)cc1F,36.2
21,COc1ccc(CN2C[C@H]3CN(C(=O)c4ccno4)CCN3C2=O)cc1,-7.88
22,CC(=O)N1CCCC(c2ccc(C(=O)NC3CCCC3)cn2)C1 (stereo not drawn),-5.66
23,CCC(C(=O)NC(C)(C)C)n1cccc(OC)c1=O (stereo not drawn),-10.3

row,SMILES,cytotoxicity at 70.5 h [%]
1,CCC1=NC(SCC(=O)c2ccc(C)cc2)c2cc(CC)sc2N1 (stereo not drawn),-15.9
2,Cc1nc(CO[C@@H]2CN(Cc3ccc(F)cc3)[C@@H]3COC[C@@H]32)cs1,-7.17
3,COc1c(CNCc2cccnc2OC2CCCC2)c(C)nn1C,-1.47
4,CC(C)N(C)Cc1nnc2n1CCN(CC1CC1)CC2,-0.138
5,CCS(=O)(=O)NCc1cccnc1N1CCCC(O)C1 (stereo not drawn),-26.9
6,COc1ccc(-c2noc(C3CC(C(C)C)=NO3)n2)cc1 (stereo not drawn),1.77
7,c1cc(NC2CC3(CCN(Cc4cc[nH]n4)C3)C2)ncn1 (stereo not drawn),-16.2
8,O=C(Cn1cc(-c2ccccc2)ncc1=O)Nc1nnc[nH]1,-13.5
9,COc1cc(F)c(-n2cnc(CCNC(C)=O)c2)cc1F,-10.8
10,Cc1nc(C(C)C)sc1C(=O)NCC(C)(C)N1CCOCC1,-8.1
11,CC(C)C(=O)N1CCC(c2c(C(N)=O)sc3ccccc23)C1 (stereo not drawn),18.5
12,COc1ccc([C@@H]2CN(c3cc(C(=O)O)ccn3)C[C@H]2N(C)C)cc1,25.7
13,Cc1noc(C(C)N2CCN(Cc3cccc(C#N)c3)CC2)n1 (stereo not drawn),-5.03
14,CCc1nc(CN(C)CC(=O)OC(C)(C)C)cs1,-4.57
15,O=C(NCc1cc(=O)n2c(n1)CN(CC1CC1)CCC2)c1ccsc1,17.3
16,Cc1cc(C)n(CC2CN(CC(=O)NC3CCCCC3)CCO2)n1 (stereo not drawn),-9.27
17,O=C(Nc1ccc(-n2ccc(C(=O)O)n2)cc1)c1ccccc1,-1.13
18,CC1=C(C(=O)N(C)Cc2noc3c2CCCC3)C(C)NC(=O)N1 (stereo not drawn),-0.0225
19,CCN1CCN(C(=O)NCc2cc[nH]n2)CC1,-8.83
20,CCC(CNC(=O)c1cc(CC(C)C)nn1C)N(C)CC (stereo not drawn),-8.14
21,O=C(c1cccc(-n2cccn2)c1)N1CCCOC(CN2CCCC2)C1 (stereo not drawn),0.244
22,CS(=O)(=O)N1C[C@H]2CCC[C@@]2(COCC2CCOCC2)C1,-4.48
23,COCC(=O)N[C@@H]1CN(Cc2c[nH]nc2-c2cccs2)C[C@H]1O,-2.93

row,SMILES,cytotoxicity at 70.5 h [%]
1,CCn1cnnc1CNC(=O)NCC(C)(CC)N1CCOCC1 (stereo not drawn),-9.65
2,CCN1CCC(NC(=O)Cn2cc(C)c3ccccc32)CC1,8.33
3,O=c1[nH]c(-c2ccccn2)nc2c1CCN(S(=O)(=O)N1CCCC1)C2,-3.27
4,Cc1n[nH]c(C)c1CC(=O)NCc1ccccc1Cl,1.58
5,Cc1ccccc1[C@@H]1CN(CCOCCO)C[C@H]1C(=O)O,-6.95
6,Cc1nc(CSc2ccc(C(F)(F)F)cn2)no1,-9.49
7,Cc1ccc(C(=O)N2C[C@@H]3OCCN(CC4CCCC4)[C@@H]3C2)cn1,-6.94
8,CCN(Cc1ccncc1)CC1(O)CCN(C(=O)c2ccccc2C)C1 (stereo not drawn),-2.28
9,c1nnc(Nc2cncc(C3CCCN3CC3CC3)n2)s1 (stereo not drawn),0.394
10,CCCOCC1CCN(C(=O)c2cnc(-c3cccnc3)nc2O)C1 (stereo not drawn),-6.25
11,Cc1ccc(CN2CCN(C(=O)c3ccc(CO)cc3)C(C)C2=O)cc1 (stereo not drawn),-17.6
12,CN(Cc1ccccc1)c1cnn(CC2COCCO2)c(=O)c1 (stereo not drawn),-2.99
13,CS(=O)(=O)N1CC2(CCN(C3CCCCC3)C2)Cc2ccccc21 (stereo not drawn),0.278
14,Cc1cc(C)n(C2CCCN(C(=O)Cc3cn4ccsc4n3)C2)n1 (stereo not drawn),-13.1
15,O=C(c1cc(-n2cnnn2)ccc1Cl)N1CCOCC1,-21.4
16,CCc1ccc(OCC(O)CN2CCN(CC)CC2)cc1 (stereo not drawn),20.5
17,COC(=O)CC1c2cccnc2C(=O)N1Cc1ccccc1 (stereo not drawn),-3.32
18,O=C(CCN1CCOC(C(F)(F)F)C1)NCc1cccc(Cl)c1 (stereo not drawn),-5.6
19,COc1ccc2c(c1)OCC(CNc1cc(N)nc(SC)n1)C2 (stereo not drawn),-0.598
20,CC(C)c1nc(C2CCCN(C(=O)CCc3cscn3)C2)no1 (stereo not drawn),-2.82
21,O=C1COc2cc(C(=O)NS(=O)(=O)c3ccccc3F)ccc2N1,21.7
22,CCCc1nc(C)cc(N2Cc3cnn(CCO)c3C2)n1,0.818
23,CCS(=O)(=O)N1CCc2ccc(NC(=O)Nc3cccc(F)c3)cc21,33

row,SMILES,cytotoxicity at 70.5 h [%]
1,O=c1n(Cc2cccc(F)c2)nc2ncccn12,15.8
2,COC(=O)Cn1c(=O)nc2n1C(=O)N(c1cccc(C)c1)C2,-7.13
3,CNc1nc(C(=O)N2C[C@@H]3CCN(C)[C@@H]3C2)cs1,-3.23
4,Cn1cc(CN2CCCC3(CCCCN3S(C)(=O)=O)C2)cn1 (stereo not drawn),-9.02
5,CCOCc1cccc(NCc2c[nH]nc2-c2cccnc2)c1,-2.34
6,CSCC(=O)N1CCCC(CCC(=O)N(C)CCc2ccccn2)C1 (stereo not drawn),9.62
7,CCS(=O)(=O)CCN(CC1CCCO1)C1CCCC1 (stereo not drawn),-2.46
8,Cc1ccc(-n2nnc(CC(=O)N3CCOCC3)c2C)cc1,-10.7
9,Cc1nc2c(c(N3CCC(O)(CN4CCCC4)CC3)n1)CCN(C)CC2,-3.57
10,CC(=O)N1CCN(C(=O)NC(C)Cn2ccnc2)CC1 (stereo not drawn),-0.59
11,CC(C)Cn1cc(NC(=O)c2cccc(N(C)C)c2)cn1,-8.55
12,CSc1ccsc1C(=O)NS(=O)(=O)c1ccc(F)cc1,-7.27
13,Cc1cccc(COc2ccc(C(C)NC(=O)CNC(N)=O)cc2)c1 (stereo not drawn),-0.269
14,COc1cccc(-n2c(SCC(=O)O)nnc2-c2cn[nH]c2)c1,-3.32
15,CCC(CNC(=O)c1ccc(C(N)=O)cc1)Oc1cccc(F)c1 (stereo not drawn),-1.85
16,Cc1ccc2[nH]c(C3CCN(C)CC3)nc2c1,12.7
17,COCC(=O)N1CCc2cccc(S(=O)(=O)N3CCOCC3)c2C1,-6.37
18,CCOCCN1CCN(Cc2cccc(C(=O)N(C)C)c2)CC1C (stereo not drawn),-9.62
19,COCCNS(=O)(=O)c1cccc2c1CN(C(=O)c1ccccc1)CC2,14.6
20,Cc1ncsc1CN1CCC2(CC1)CC(=O)N(Cc1ccc(Cl)cc1)C2,-3.74
21,Cc1cc(NC(=O)NCCOc2ccc(Cl)cn2)no1,-3.43

# From ChEMBL document CHEMBL3507680, “University of Dundee, Gates Library screen for HepG2 cell viability”
